Source: the supplement of paper PMC11208160

Assay: recombinant UMI read abundance after kanamycin selection (control-corrected) (log10(CPM+1)); higher = more efficient recombination; extreme values may be limits of the assay; sequences stand for … in AGTGCAGAGAAAATCGGCCAGTTTTCTCTGCCTGCAGTCCGCATGCCGTGGGACCCCTTGGGTTCTAACCTGTTGCCTAGATTTATGCAGCGGACTGCCTTTCTCCCAAAGTGATAAACCGG…AGGTTGGTTTCACT; site = the 11-nt donor
Outline: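 Sequenced counts of recombinant UMIs were turned into CPM, averaged across replicates and scaled with control-derived factors. The reported figure is log10(CPM+1). Those UMIs, each 12 nt long, tagged donor and donor-binding-loop pairs on a plasmid with a promoterless kanamycin gene, screened as a pool in Escherichia coli with IPTG (0.07 mM) plus kanamycin or without selection.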
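Note: IS621 bridge recombinase in Escherichia coli cells against a fixed T5 target plasmid.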

Sequence	recombinant UMI read abundance (log10)
CCAATCGCATGGACCGGTTTTCCCGGTAATCCGTATTTGCA (site CCAATCGCTTG)	0
CCAATTACATGGACCGGTTTTCCCGGTAATCCGTATTTGCC (site CCAATTACTGG)	0
CCACACACATGGACCGGTTTTCCCGGTAATCCGTATTTGCA (site CCACACACTTG)	2.07
CCACCCTCATGGACCGGTTTTCCCGGTAATCCGTATTTGCT (site CCACCCTCTAG)	1.95
CCACGGACATGGACCGGTTTTCCCGGTAATCCGTATTTGGT (site CCACGGACTAC)	0.0137
CCACGGCCATGGACCGGTTTTCCCGGTAATCCGTATTTGTA (site CCACGGCCTTA)	0
CCACGTCCATGGACCGGTTTTCCCGGTAATCCGTATTTGGT (site CCACGTCCTAC)	0.0291
CCACTTGCATGGACCGGTTTTCCCGGTAATCCGTATTTGTG (site CCACTTGCTCA)	0.358
CCAGATGCATGGACCGGTTTTCCCGGTAATCCGTATTTGCG (site CCAGATGCTCG)	1.59
CCAGGATCATGGACCGGTTTTCCCGGTAATCCGTATTTGAT (site CCAGGATCTAT)	0
CCAGGCGCATGGACCGGTTTTCCCGGTAATCCGTATTTGAT (site CCAGGAGCTAT)	1.06
CCAGGCGCATGGACCGGTTTTCCCGGTAATCCGTATTTGAT (site CCAGGCGCTAT)	1.24
CCAGGCGCATGGACCGGTTTTCCCGGTAATCCGTATTTGAT (site CCAGGGGCTAT)	0.00758
CCAGGCGCATGGACCGGTTTTCCCGGTAATCCGTATTTGAT (site CCAGGTGCTAT)	0.707
CCAGGGGCATGGACCGGTTTTCCCGGTAATCCGTATTTGAT (site CCAGGAGCTAT)	0.735
CCAGGGGCATGGACCGGTTTTCCCGGTAATCCGTATTTGAT (site CCAGGCGCTAT)	0.972
CCAGGGGCATGGACCGGTTTTCCCGGTAATCCGTATTTGAT (site CCAGGGGCTAT)	1.04
CCAGGGGCATGGACCGGTTTTCCCGGTAATCCGTATTTGAT (site CCAGGTGCTAT)	0.888
CCAGTACCATGGACCGGTTTTCCCGGTAATCCGTATTTGCA (site ACAGTATCTTG)	0

Sequence	recombinant UMI read abundance (log10)
CCAGTACCATGGACCGGTTTTCCCGGTAATCCGTATTTGCA (site CCAGTACCTTG)	0
CCAGTATCATGGACCGGTTTTCCCGGTAATCCGTATTTGAA (site ACAGTATCTTG)	0.128
CCAGTATCATGGACCGGTTTTCCCGGTAATCCGTATTTGAA (site CCAGTATCTTT)	1.05
CCAGTATCATGGACCGGTTTTCCCGGTAATCCGTATTTGAA (site CTAGTATCTGT)	0
CCAGTATCATGGACCGGTTTTCCCGGTAATCCGTATTTGCC (site ACAGTATCTTG)	0.0067
CCAGTATCATGGACCGGTTTTCCCGGTAATCCGTATTTGCC (site CCAGTATCTGG)	1.44
CCAGTATCATGGACCGGTTTTCCCGGTAATCCGTATTTGCC (site CTAGTATCTGT)	0
CCAGTCACATGGACCGGTTTTCCCGGTAATCCGTATTTGGA (site CCAGTCACTTC)	0.00572
CCAGTGTCATGGACCGGTTTTCCCGGTAATCCGTATTTGCA (site ACAGTATCTTG)	0
CCAGTGTCATGGACCGGTTTTCCCGGTAATCCGTATTTGCA (site CCAGTGTCTTG)	1.5
CCAGTTTCATGGACCGGTTTTCCCGGTAATCCGTATTTGAC (site CCAGTTTCTGT)	0.759
CCAGTTTCATGGACCGGTTTTCCCGGTAATCCGTATTTGAC (site CTAGTATCTGT)	0
CCATAAACATGGACCGGTTTTCCCGGTAATCCGTATTTGAA (site CCATAAACTTT)	1.22
CCATACTCATGGACCGGTTTTCCCGGTAATCCGTATTTGCA (site ACATACTCTTG)	0.648
CCATACTCATGGACCGGTTTTCCCGGTAATCCGTATTTGCA (site CCATACTCTTG)	2.11
CCATACTCATGGACCGGTTTTCCCGGTAATCCGTATTTGCA (site GCATACTCTTG)	0
CCATACTCATGGACCGGTTTTCCCGGTAATCCGTATTTGCA (site TCATACTCTTG)	0
CCATACTCATGGACCGGTTTTCCCGGTAATCCGTATTTGGC (site CCATACTCTGC)	0.585
CCATAGCCATGGACCGGTTTTCCCGGTAATCCGTATTTGCC (site CCATAGCCTGG)	0
